US20260083865A1, “PROSTATE SPECIFIC MEMBRANE ANTIGEN (PSMA) LIGANDS AND USE THEREOF” (priority 2022, published 2026)
Read-outs that look alike come from different tables or passages of the source. Numbered stars: 1 amine (or outer) side, 2 acyl side, 3 side chain; on linkers, the order of the positions; unused ones are H or OH. Bridge positions count the residues as written; N and C are the ends. Square brackets hold non-standard residues; d marks the D form. Peptide text beside a SMILES is read from it. * marks the point of attachment. ξ: configuration not given here. X17 = N=c1ccc2c(-c3ccc(C(=O)NCCC(=O)N4Cc5ccccc5-c5c(nnn5CCCCCC(=O)NCCCOCCOCCOCCCNC(=O)CCC(=O)NCCCOCCOCCOCCCN*)-c5ccccc54)cc3C(=O)O)c3ccc(N)c(S(=O)(=O)O)c3oc-2c1S(=O)(=O)O; X19 = NC(=O)[C@H](CCCCNC(=O)CCCC[C@@H]1SC[C@@H]2NC(=O)N[C@@H]21)NC(=O)CCC(=O)NCCCOCCOCCOCCCNC(=O)CCC(=O)NCCCOCCOCCOCCCNC(=O)CCC(=O)NCCCOCCOCCOCCCN*; X3 = O=C(O)CN1CCN(CC(=O)O)CCN(CC(=O)NCCCOCCOCCOCCCN*)CCN(CC(=O)O)CC1; DOTA = O=C(O)CN1CCN(CC(=O)O)CCN(CC(=O)*)CCN(CC(=O)O)CC1; X20 = CN(CCC[C@H](N[*:1])C(=O)[*:2])C(=N)N; Phe(4-Cl) = N[C@@H](Cc1ccc(Cl)cc1)C(=O)O; X1 = O=C(CC1CCN([*:1])CC1)[*:2]; Lys(Me) = CNCCCC[C@H](N)C(=O)O; Suc = O=C(CCC(=O)[*:2])[*:1]; Tle = CC(C)(C)[C@H](N)C(=O)O; Aib = CC(C)(N)C(=O)O; ξM = CSCCC(N)C(=O)O

How the values were obtained:
[1] = target: T1, PSMA-expressing C4-2 cells (Homo sapiens, UniProt Q04609); experiment: FACS binding assay (competition with 50 nM PSM-0183); conditions: FACS binding, C4-2 cells, category, read-out: pIC50 [C4-2] CAT (converted)
T1 construct: PSMA-expressing C4-2 cells (ATCC, Cat. No. CRL-3314) were cultured in RPMI-1640; host or cells: C4-2 cells
Experimental: In order to determine binding of compounds according to the present invention to PSMA-expressing cells, a FACS binding assay was established.
PSMA-expressing C4-2 cells (ATCC, Cat. No. CRL-3314) were cultured in RPMI-1640 (Pan Biotech, Cat. No. P04-18050) including 10% fetal calf serum (Biochrom) and 100 U/ml penicillin and 100 μg/mL streptomycin (Sigma, Cat. No. P0781). Cells were detached with Accutase (Biolegend, Cat. No. BLD-423201) and washed in FACS buffer (PBS (Sigma, Cat. No. D8537) including 1% fetal calf serum). Cells were diluted in FACS buffer to a final concentration of 500,000 cells per mL. 200 μL of the cell suspension were transferred to a u-shaped non-binding 96-well plate (Greiner Bio-One, Cat. No. 650901) and cells were washed in ice-cold FACS buffer.
For IC50 determination, C4-2 cells were incubated with 50 nM PSM-0183 (Ac-Thr-Aib-Phe[Cys-Lys-Arg-Aib-Asn-Cys]-Tle-Thr-Asp-Ttds-Ttds-AF488N3K-NH2) in the presence of increasing concentrations of test compounds at 4° C. for 1 hour. After two wash steps with ice-cold FACS buffer, cells were analyzed in an Attune NxT flow cytometer. Median fluorescence intensities (MFI) of the FITC/AF488-channel were calculated by Attune NxT software. MFI values were plotted against peptide concentration and four parameter logistic (4PL) curve fitting and IC50/pIC50 calculations were performed using ActivityBase software (IDBS).

[2] = target: T2, Fc-fusion protein of human PSMA (hPSMA-Fc) (Homo sapiens, UniProt Q04609); experiment: Surface plasmon resonance assay (Biacore T200, single cycle kinetic); type: binding; conditions: hPSMA-Fc, 25° C., read-out: pKD CAT (converted)
T2 construct: purchased Acro Biosystems PSA-H5264
Experimental: Surface plasmon resonance (SPR) studies were performed using a Biacore™ T200 SPR system. Briefly, polarized light is directed towards a gold-labeled sensor surface, and minimum intensity reflected light is detected. The angle of reflected light changes as molecules bind and dissociate.
Fc-fusion protein of human PSMA (hPSMA-Fc, Acro Biosystems, Cat #PSA-H5264) was captured on a Fc-capture chip (Biacore™ CM5 sensor chip coated with ˜300 RU of an Fc-binding peptide). hPSMA-Fc was diluted in Running Buffer (HBST, 0.1% DMSO) to a final concentration of 100 nM and then flushed over the Fc-capture chip to immobilized ˜1000 RUs.
Stock solutions of test compounds were prepared by dissolving each compound in DMSO. DMSO stock solution were diluted 1:1000 in Running Buffer without DMSO. Further sequential dilutions were made with Running Buffer containing 0.1% DMSO. SPR binding analyses were performed in Single Cycle Kinetic (SCK) mode at 25° C. Flow cell coated with the Fc-binding peptide only served as reference flowcell. After each SCK run, hPSMA-Fc was removed with 10 mM glycine buffer, pH 1.5.
In between every three SCK measurements, a blank run with Running Buffer instead of test compound was included to correct for baseline drifts (double blanking method).
Table 5 describes the protocol steps for Fc-fusion target capturing and assessment of the binding kinetics.
For each test compound, SPR raw data in the form of resonance units (RU) were plotted as sensorgrams using the Biacore™ T200 control software. The signal from the blank sensorgram was subtracted from that of the test compound sensorgram (blank corrected). The blank corrected sensorgram was corrected for baseline drift by subtracting the sensorgram of a SCK run without the test compound (running buffer only). The dissociation constant (KD) was calculated from Blank-normalized SPR data using the 1:1 Langmuir binding model from the Biacore™ Insight Evaluation software. The pKD value (negative decadic logarithm of dissociation constant) was calculated using Microsoft Excel.

[3] = competition with 50 nM PSM-0183

T1 sequence (Q04609 whole entry): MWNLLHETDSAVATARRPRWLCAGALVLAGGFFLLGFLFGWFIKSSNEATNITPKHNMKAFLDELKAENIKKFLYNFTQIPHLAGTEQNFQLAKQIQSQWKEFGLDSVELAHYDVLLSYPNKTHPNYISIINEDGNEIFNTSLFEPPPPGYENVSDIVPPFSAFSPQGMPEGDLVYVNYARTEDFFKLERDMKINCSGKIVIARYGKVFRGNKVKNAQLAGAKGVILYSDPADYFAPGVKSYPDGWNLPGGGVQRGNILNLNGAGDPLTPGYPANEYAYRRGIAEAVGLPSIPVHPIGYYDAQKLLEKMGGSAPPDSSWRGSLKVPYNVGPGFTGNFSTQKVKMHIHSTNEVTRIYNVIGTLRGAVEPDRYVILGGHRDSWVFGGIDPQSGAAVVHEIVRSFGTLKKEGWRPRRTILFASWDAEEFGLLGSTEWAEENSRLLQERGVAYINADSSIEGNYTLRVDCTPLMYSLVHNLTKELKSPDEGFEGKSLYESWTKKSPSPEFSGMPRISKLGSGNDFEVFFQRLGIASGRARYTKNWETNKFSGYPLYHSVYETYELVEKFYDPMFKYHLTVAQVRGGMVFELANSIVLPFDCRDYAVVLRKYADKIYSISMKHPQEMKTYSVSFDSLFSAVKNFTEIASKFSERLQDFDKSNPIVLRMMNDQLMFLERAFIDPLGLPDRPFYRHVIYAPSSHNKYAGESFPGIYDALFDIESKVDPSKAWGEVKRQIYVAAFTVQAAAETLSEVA
T2 sequence (Q04609 44-750 limits assumed): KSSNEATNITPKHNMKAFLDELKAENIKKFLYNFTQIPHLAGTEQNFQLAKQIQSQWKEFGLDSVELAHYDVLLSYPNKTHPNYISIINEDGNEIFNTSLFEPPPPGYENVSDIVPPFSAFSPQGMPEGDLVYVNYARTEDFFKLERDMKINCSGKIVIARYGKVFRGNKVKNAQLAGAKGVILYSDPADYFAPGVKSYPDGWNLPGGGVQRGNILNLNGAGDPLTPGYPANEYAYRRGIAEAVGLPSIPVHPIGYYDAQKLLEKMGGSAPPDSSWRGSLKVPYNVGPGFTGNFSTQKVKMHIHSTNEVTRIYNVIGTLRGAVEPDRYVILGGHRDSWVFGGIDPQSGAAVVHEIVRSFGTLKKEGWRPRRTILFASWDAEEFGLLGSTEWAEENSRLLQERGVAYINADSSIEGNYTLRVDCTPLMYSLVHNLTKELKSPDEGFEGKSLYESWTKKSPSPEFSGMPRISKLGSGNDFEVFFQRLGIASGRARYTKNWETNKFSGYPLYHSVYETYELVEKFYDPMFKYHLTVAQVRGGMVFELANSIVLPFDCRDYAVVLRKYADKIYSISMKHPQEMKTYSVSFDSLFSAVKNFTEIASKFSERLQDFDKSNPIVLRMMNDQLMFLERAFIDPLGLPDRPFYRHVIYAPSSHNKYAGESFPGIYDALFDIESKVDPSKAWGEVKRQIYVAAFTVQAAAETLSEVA

An IC50 [1] of less than 0.2 µM was found for `CNCCCC[C@@H]1NC(=O)[C@@H](NC(=O)[C@H](Cc2ccc(Cl)cc2)NC(=O)C(C)(C)NC(=O)[C@@H](NC(=O)CC2CCN(C(=O)CN3CCN(CC(=O)O)CCN(CC(=O)O)CCN(CC(=O)O)CC3)CC2)[C@@H](C)O)CSSC[C@@H](C(=O)N[C@H](C(=O)N[C@H](C(N)=O)[C@@H](C)O)C(C)(C)C)NC(=O)[C@H](CC(N)=O)NC(=O)C(C)(C)NC(=O)[C@H](CCCN(C)C(=N)N)NC1=O` [PSM-0592, DOTA-Cmp-Thr-Aib-Pcf-[Cys-Lys(Me)-RMe1-Aib-Asn-Cys]-Tle-Thr-NH2] ({DOTA}-[X1]T[Aib][Phe(4-Cl)]C[Lys(Me)][X20][Aib]NC[Tle]T-NH2; disulfide 5-10) in this work.

A Kd ([2]; SPR, single cycle kinetic, category) of less than 0.0126 µM was found for `CC(=O)N[C@H](C(=O)NC(C)(C)C(=O)N[C@@H](Cc1ccccc1)C(=O)N[C@H]1CSSC[C@@H](C(=O)N[C@H](C(=O)N[C@H](C(=O)N[C@@H](CC(=O)O)C(=O)NCCCOCCOCCOCCCNC(=O)CCC(=O)NCCCOCCOCCOCCCNC(=O)CCC(=O)N[C@H](CCCCn2nnc3c2-c2ccccc2CN(C(=O)CCNC(=O)c2ccc(-c4c5ccc(=N)c(S(=O)(=O)O)c-5oc5c(S(=O)(=O)O)c(N)ccc45)c(C(=O)O)c2)c2ccccc2-3)C(N)=O)[C@@H](C)O)C(C)(C)C)NC(=O)[C@H](CC(N)=O)NC(=O)C(C)(C)NC(=O)[C@H](CCCNC(=N)N)NC(=O)[C@H](CCCCN)NC1=O)[C@@H](C)O` [PSM-0183, Ac-Thr-Aib-Phe-[Cys-Lys-Arg-Aib-Asn-Cys]-Tle-Thr-Asp-Ttds-Ttds-AF488N3K-NH2] in this work.

An IC50 [1, 3] of 0.2 to 1.26 µM was found for `CSCCC(N)C(=O)N[C@H](C(=O)N[C@@H](C)C(=O)N[C@@H](Cc1ccccc1)C(=O)N[C@H]1CSSC[C@@H](C(=O)N[C@@H](CC(C)C)C(=O)N[C@H](C(=O)N[C@@H](CC(=O)O)C(=O)NCC(=O)N[C@@H](CO)C(=O)NCCCOCCOCCOCCCNC(=O)CCC(=O)NCCCOCCOCCOCCCNC(=O)CCC(=O)NCCCOCCOCCOCCCNC(=O)CCC(=O)N[C@@H](CCCCNC(=O)CCCC[C@@H]2SC[C@@H]3NC(=O)N[C@@H]32)C(N)=O)[C@@H](C)O)NC(=O)[C@H](CC(N)=O)NC(=O)[C@H](C)NC(=O)[C@H](CCCNC(=N)N)NC(=O)[C@H](CCCCN)NC1=O)[C@@H](C)O` (stereo partly drawn) [PSM-0226, H-Met-Thr-Ala-Phe-[Cys-Lys-Arg-Ala-Asn-Cys]-Leu-Thr-Asp-Gly-Ser-Ttds-Ttds-Ttds-Lys(Bio)-NH2] (H-[ξM]TAFCKRANCLTDGS-X19; disulfide 5-10) in this work.

A Kd ([2]; PSMA SPR assay, pKD category) of less than 0.0126 µM was found for `C[C@@H](O)[C@H](NC(=O)CCC(=O)NCCCOCCOCCOCCCNC(=O)CCC(=O)NCCCOCCOCCOCCCNC(=O)CCCCCn1nnc2c1-c1ccccc1CN(C(=O)CCNC(=O)c1ccc(-c3c4ccc(=N)c(S(=O)(=O)O)c-4oc4c(S(=O)(=O)O)c(N)ccc34)c(C(=O)O)c1)c1ccccc1-2)C(=O)NC(C)(C)C(=O)N[C@@H](Cc1ccccc1)C(=O)N[C@H]1CSSC[C@@H](C(=O)N[C@H](C(=O)N[C@H](C(=O)N[C@@H](CC(=O)O)C(N)=O)[C@@H](C)O)C(C)(C)C)NC(=O)[C@H](CC(N)=O)NC(=O)C(C)(C)NC(=O)[C@H](CCCNC(=N)N)NC(=O)[C@H](CCCCN)NC1=O` [PSM-0272, AF488Ahx-Ttds-Ttds-Thr-Aib-Phe-[Cys-Lys-Arg-Aib-Asn-Cys]-Tle-Thr-Asp-NH2] ({X17-Suc}-T[Aib]FCKR[Aib]NC[Tle]TD-NH2; disulfide 4-9) in this work.

An IC50 [1, 3] of 0.2 to 1.26 µM was found for `CC(C)C[C@H](NC(=O)[C@@H]1CSSC[C@H](NC(=O)[C@H](Cc2ccccc2)NC(=O)[C@H](C)NC(=O)[C@@H](NC(=O)CCC(=O)NCCCOCCOCCOCCCNC(=O)CN2CCN(CC(=O)O)CCN(CC(=O)O)CCN(CC(=O)O)CC2)[C@@H](C)O)C(=O)N[C@@H](CCCCN)C(=O)N[C@@H](CCCNC(=N)N)C(=O)N[C@@H](C)C(=O)N[C@@H](CC(N)=O)C(=O)N1)C(=O)N[C@H](C(=O)N[C@@H](CC(=O)O)C(N)=O)[C@@H](C)O` [PSM-0251, DOTA-Ttds-Thr-Ala-Phe-[Cys-Lys-Arg-Ala-Asn-Cys]-Leu-Thr-Asp-NH2] ({X3-Suc}-TAFCKRANCLTD-NH2; disulfide 4-9) in this work.
